Measured values reported in patent US10638754B2, “Methods of attracting Drosophila suzukii using acetoin blend” (The United States of America, as Represented by the …, priority 2016, dated 2020).
Blank lines part the entries; values can stand above or below the compound they belong to.

Legend:
[1] = lure release rate from micro-centrifuge tube dispensers; format: physicochemical; conditions: for first order rate constant k of desorption: 1 mL loading, micro-centrifuge tube dispenser, fume hood
Method: Lure Release Rate: Release rates of three different kinds of attractants, including acetoin (AT), ethyl octanoate (EO), and a blend of AT and EO (ratio=1:1), were measured under controlled conditions in a laboratory fume hood. Each attractant (1 mL) was loaded onto cotton balls held in open micro-centrifuge tubes (1.5 mL, VWR International, Radnor, Pa.). Fifteen of these micro-centrifuge tubes (five of each tested attractant) were suspended on hooks in a fume hood (temperature: 20-25° C., face velocity: 129 feet/min). Each tube was weighed every 24-h or 72-h (weekend) and the amount of attractant residue was calculated and recorded over a period of two weeks.

D. suzukii [2] = assay: field tests in 2015, baited traps; format: in vivo, Drosophila suzukii; conditions: for attraction of D. suzukii in the field: traps, Beltsville, late fall 2015, FIG. 4-6
Method: (§1) Field test: Commercially-available Victor® yellowjacket and flying insect traps (Great Lakes IPM Inc., Vestaburg, Mich.) filled with ˜300 mL of tap water containing a surfactant (Seventh Generation™ natural dish liquid—free and clear, Shoppers Food and Pharmacy, College Park, Md., 4 mL/gallon) as a drowning solution were used in all field tests at the Beltsville Agricultural Research Center-West, Beltsville, Md. (10300 Baltimore Ave., Beltsville, Md.) and at the blueberry field at Butler's Orchard (22222 Davis Mill Rd, Germantown, Md.). Unless otherwise indicated, pure chemical (individual or blend, 1 mL) was loaded onto a cotton ball held within a polypropylene flex micro-centrifuge tube (1.5 mL Eppendorf micro-centrifuge tube, VWR International, Radnor, Pa.) and the lid of the tube was then closed. Tubes filled only with a cotton ball were used as blank controls. The micro-centrifuge tube lure was opened and the lid was snapped into one of four holes on the cap of the Victor® trap, leaving the three remaining holes to serve as entrances for attracted insects. At the Beltsville Agricultural Research Center, traps were hung from the branches of trees on the edge of a small woodlot in blocks consisting of 3-5 treatments and 1 blank control with the traps spaced approximately 5 m apart within a group. The treatments were randomly arranged at different positions within the block and blocks were separated by 10-20 m. At the blueberry field in Butler's Orchard, traps were hung from the branches of blueberry bushes, deployed in blocks consisting of 3 treatments with the traps spaced approximately 5 m apart in a group. The traps were randomly arranged at different positions within the block and blocks were separated by 10-20 m.
The preliminary field tests were conducted at the Beltsville Agricultural Research Center during Oct. 17 to 24, 2014, using six different lures: (1) apple juice blend (treatment 1, 7-components based on apple juice fermentation products (FIG. 1), including isobutanol (IB):2-methyl butanol (2MB):3-methyl butanol (3MB):ethyl hexanoate (EH):acetoin (AT):ethyl octanoate (EO):methyl benzoate (MB) in natural ratios of 4:7:7:0.3:1:0.3:2) (v/v)), (2) raspberry blend (11-components blend, including butyl acetate:hexanal:2-heptanone:3-methyl-butanol:trans-2-hexenal:3-methyl-2-butyl acetate:2-heptanol:hexanol:cis-3-hexenol:6-methyl-5-hepten-2-ol:linalool; obtained from Sigma-Aldrich; mixed into an 11-component blend in natural ratios of 1:36:3:5:10:2:7:8:9:2:8 (v/v), respectively))(Abraham, J. et al., Environ. Entomol., 44 (2): 356-367 (2015)), (3) single component (2-methyl butanol (2MB)), (4) 3-methyl butanol (3MB), (5) binary components blend ((2MB+3MB in 1:1 ratio)), and (6) blank control. In 2015 and 2016, three additional treatments were formulated: treatment 14 ((2-components, including acetoin (AT) and ethyl octanoate (EO) in 1:1 ratio), treatment 16 (single-component, acetoin (AT)), and treatment 17 (single-component, ethyl octanoate (EO)). The rest of the compounds, including ethanol (EtOH) (10 mL) and acetic acid (AA) (1 mL), were added into drowning water and evaluated as individual attractant or synergistic attractive agent whenever needed. In 2016, ACV (300 mL, Essential Everyday®, 5% acidity, Shoppers Food and Pharmacy, College Park, Md.) and a commercially-available Scentry® SWD lure (Great Lakes IPM Inc., Vestaburg, Mich.) were used as standard lures for SWD attraction activity comparison. The amount of AA in the drowning solution in each trap was increased from 1 mL to 15 mL to reach the same acidity (5%) with ACV. In addition, ethyl acetate (EA) (5 mL) and phenethyl alcohol (PE) (1 mL) were added to the drowning solution and evaluated as individual attractants or synergistic attractive agents. Lure dispenser tubes and trap drowning solutions with captured insects were collected and replaced every week unless otherwise indicated. Flies were counted in the laboratory.

D. suzukii [3] = assay: laboratory two-choice bioassay (treatment vs. blank control); format: in vivo, Drosophila suzukii; conditions: for attraction against blank control: 20 μL standard dose, FIG. 3D, 3E; for D. suzukii that made choice: 20 μL, FIG. 3E; for attraction compared to a blank control: 50 μL total volume, N=15, FIG. 3C
Method: Laboratory behavioral bioassay: To identify the key components for D. suzukii attraction from the apple juice 7-components blend, a two-choice laboratory bioassay (testing chemical or chemical blend vs. blank control) was used and different combinations of 7-components were evaluated. A complete test apparatus consisted of a plastic cup containing two trap tubes with two lure vials, and a water wick (FIG. 2). The plastic cups were clear, cylindrical polypropylene food containers (946 mL, diameter 114 mm, height 127 mm, Paper Mart, CA). […] The polystyrene trap tubes (95 mm×28.5 mm, same as those used in insect rearing) were labeled “T” for treatment and “B” for blank control, respectively, and were then given the appropriate lure. Lures were either tested chemical/chemical blends (unless otherwise indicated, 20 μL pure individual or blend) loaded onto a small cotton ball held within a small polyethylene lure vial (26 mm×8 mm×1.5 mm thickness, Just Plastic Ltd., Norwich, UK) or blank controls of plain cotton or cotton with solvent (in dose response trials) held in the same type of small lure vial. Each lure vial (open lid) was placed vertically within its trap tube and then the top of each trap tube was sealed with Parafilm® (Pechiney plastics packaging Inc. Menasha, Wis.) leaving only a 4 mm diameter hole in the center to provide an entrance for attracted flies. Each pair of loaded trap tubes were then placed vertically on opposite sides of the test cups with the entrance holes facing upwards. A water wick consisting of a glass scintillation vial (20 mL, VWR, PA) filled with deionized water and plugged with a cotton ball was laid on the bottom of the plastic cup to serve as a water source for the flies during the experiment (FIG. 2). Flies were immobilized using a CO2 stream and 10 were transferred into each testing apparatus. The fully-assembled test apparatus cups were then covered with their ventilated lids. All assays were conducted in a fume hood (120-cm-length×60-cm-width×70-cm-height) using new lures and young flies (2-8 days post-eclosion) under 25° C., 60% RH, and a 16:8 hour (L:D) photoperiod. Mixed-sex D. suzukii were used in bioassays unless stated otherwise, and all flies within and outside treatment and control trap tubes were counted and sexed after 48 hours.
All statistical comparisons were considered for significance at α=0.05.

D. suzukii [4] = assay: preliminary field test with baited traps, 2014; format: in vivo, Drosophila suzukii; conditions: for Mean ± SD (SWD captured): Oct. 17 to Oct. 24, 2014, 3 replicates; for Total no. SWD captured: Oct. 17 to Oct. 24, 2014, Beltsville, 3 replicates
Method: as §1
The preliminary field tests were conducted at the Beltsville Agricultural Research Center during Oct. […] In 2015 and 2016, three additional treatments were formulated: treatment 14 ((2-components, including acetoin (AT) and ethyl octanoate (EO) in 1:1 ratio), treatment 16 (single-component, acetoin (AT)), and treatment 17 (single-component, ethyl octanoate (EO)). The rest of the compounds, including ethanol (EtOH) (10 mL) and acetic acid (AA) (1 mL), were added into drowning water and evaluated as individual attractant or synergistic attractive agent whenever needed. In 2016, ACV (300 mL, Essential Everyday®, 5% acidity, Shoppers Food and Pharmacy, College Park, Md.) and a commercially-available Scentry® SWD lure (Great Lakes IPM Inc., Vestaburg, Mich.) were used as standard lures for SWD attraction activity comparison. […] In addition, ethyl acetate (EA) (5 mL) and phenethyl alcohol (PE) (1 mL) were added to the drowning solution and evaluated as individual attractants or synergistic attractive agents. […] Flies were counted in the laboratory.

D. suzukii [5] = assay: field tests in 2016, baited traps; format: in vivo, Drosophila suzukii; conditions: Nov.-Dec. 2016, FIG. 7-11
Method: (§2) Field test: Commercially-available Victor® yellowjacket and flying insect traps (Great Lakes IPM Inc., Vestaburg, Mich.) filled with ˜300 mL of tap water containing a surfactant (Seventh Generation™ natural dish liquid—free and clear, Shoppers Food and Pharmacy, College Park, Md., 4 mL/gallon) as a drowning solution were used in all field tests at the Beltsville Agricultural Research Center-West, Beltsville, Md. (10300 Baltimore Ave., Beltsville, Md.) and at the blueberry field at Butler's Orchard (22222 Davis Mill Rd, Germantown, Md.). […]
(§3) The preliminary field tests were conducted at the Beltsville Agricultural Research Center during Oct. […] In 2015 and 2016, three additional treatments were formulated: treatment 14 ((2-components, including acetoin (AT) and ethyl octanoate (EO) in 1:1 ratio), treatment 16 (single-component, acetoin (AT)), and treatment 17 (single-component, ethyl octanoate (EO)). The rest of the compounds, including ethanol (EtOH) (10 mL) and acetic acid (AA) (1 mL), were added into drowning water and evaluated as individual attractant or synergistic attractive agent whenever needed. In 2016, ACV (300 mL, Essential Everyday®, 5% acidity, Shoppers Food and Pharmacy, College Park, Md.) and a commercially-available Scentry® SWD lure (Great Lakes IPM Inc., Vestaburg, Mich.) were used as standard lures for SWD attraction activity comparison. […]

other D. spp. = assay: field tests in 2015, baited traps, non-target catch; format: in vivo; conditions: EtOH combined with the AT+AA blend; field 2015; FIG. 4
Method: as §2, §3

Compound: CCCCCCCC(=O)OCC [EO, ethyl octanoate]
first order rate constant k of desorption [1]: 0.049 day⁻¹
synergistic effect when combined with AA (D. suzukii [2]; field 2015): No synergistic effect
attraction of D. suzukii in the field (D. suzukii [2]): did not show any activity at all
attraction against blank control (D. suzukii [3]; 48 h): most attractive component
D. suzukii that made choice (D. suzukii [3]; 48 h): 96%
Mean ± SD (D. suzukii captured in tubes) (D. suzukii [3]; 50 μL loading, 5 replicates of 10 flies, 48 h): 9.80 ± 0.45a
Total no. captured (D. suzukii [3]; 50 μL loading, 5 replicates, 50 flies tested in total, 48 h): 49
effectiveness compared with other treatments (D. suzukii [3]; 50 μL loading, N=5): captured significantly more D. suzukii than trap vials baited with treatment 1
attraction against blank control, dose response (D. suzukii [3]; all doses from 0.3 μL to 300 μL, FIG. 3F): Significantly attractive activities

Compound: CC(=O)O [AA, acetic acid]
attraction of D. suzukii in the field (D. suzukii [2]): inactive by itself
attraction compared to a blank control (D. suzukii [3]): not attractive

time to release 50% (half-life of dispenser, t1/2=0.693/k) [1]: ~48 h
Compound: CC(=O)C(C)O (stereo not shown) [AT, 3-hydroxy-2-butanone]
first order rate constant k of desorption [1]: 0.316 day⁻¹
attraction of D. suzukii in the field (D. suzukii [2]): significantly more attractive than EO
attraction against blank control (D. suzukii [3]; 48 h): elicited attraction
attraction against blank control (D. suzukii [3]; 48 h, listed as Acetoin): moderate activity

Compound: CCC(C)CO (stereo not shown) [2MB, 2-methyl-1-butanol]
Mean ± SD (SWD captured) (D. suzukii [4]): 1.00 ± 1.00c
Total no. SWD captured (D. suzukii [4]): 3
attraction against blank control (D. suzukii [3]; 48 h): repellent effect
D. suzukii that made choice (D. suzukii [3]; 48 h): 37%

Compound: CCOC(C)=O [EA, ethyl acetate]
attraction of D. suzukii in the field (D. suzukii [5]): not attractive in the field

Compound: OCCc1ccccc1 [PE, phenethyl alcohol]
attraction of D. suzukii in the field (D. suzukii [5]): did not show any activity

Compound: CC(C)CCO [3MB, 3-methyl-1-butanol]
Mean ± SD (SWD captured) (D. suzukii [4]): 3.00 ± 1.00c
Total no. SWD captured (D. suzukii [4]): 9

Compound: CCO [EtOH, ethanol, reference compound]
trap catch of non-target Drosophila (other D. spp.): attracted significantly more non-target Drosophila
SWD specificity of the blend (D. suzukii [2]; ethanol added to blend of AT and AA): ~30%
attraction of D. suzukii in the field (D. suzukii [2]): did not show significant activity
attraction compared to a blank control (D. suzukii [3]): significantly more attractive
